Results on 26 molecules are retold here after patent US9573887B2, “Naphthalene derivative” (Daito Chemix Corporation, priority 2010, dated 2017).

Structures can show the parent of a compound that is named as a salt.

This experiment deals with T1, Mouse VCP (Mus musculus, UniProt Q01853).
T1 construct: histidine tag (N); made in house; host or cells: Sf-9 insect cells (baculovirus vector pVL1392)
The experiment is described as follows: ATPase activity of purified His-tagged VCP, [γ-32P]ATP, liberated phosphate by liquid scintillation. In kind it is biochemical. The settings on record: compounds of Examples; ATPase inhibitory activity; 500 ng VCP, 100 μM ATP, 37° C., 10 minutes. On the procedure: In one aspect, the effect of VCP regulators for regulating ATPase activity is determined, for example by the following exemplary assay. Mouse VCP cDNA (the amino acid sequence is completely identical among mouse, rat and human) is added with a DNA sequence corresponding to a histidine tag at the amino-terminal, subcloned into a baculovirus vector pVL1392 (BD Bioscience), and expressed in Sf-9 insect cells. The protein is purified with a nickel column. After the purification the concentration of the protein is adjusted to 0.25-0.5 μg/ml and the protein is stored in a solution containing 50 mM TrisCl pH 8.0, 5 mM EDTA, 10% glycerol, and 15 mM DTT at 4° C. 500 ng of the purified VCP is mixed with 100 μM [γ-^32P]ATP (18.5 GBq/mmol) and the test substance in 20 μL of ATPase buffer (20 mM HEPES (pH7.4), 50 mM KCl, 5 mM MgCl2, 15 mM DTT), and incubated at 37° C. for 10 minutes. The enzyme reaction is stopped with addition of 200 μL of an ice-cold solution containing 7% TCA and 1 mM K2HPO4. 50μ of a solution containing 3.75% ammonium molybdate and 0.02M tungstate silicic/3 N H2SO4 is added, followed by 300 μL of n-butylacetic acid, and then the liberated phosphate is extracted into the organic layer. The reaction tube is centrifuged for 5 minutes at 20,000 g to separate the aqueous layer and the organic layer, 200 μL of the organic layer is taken, and the beta ray radiated from the liberated phosphate is quantified with liquid scintillation counter. By measuring the ATPase activity in the presence of the test substance at various concentrations, ATPase inhibitory activity of the test substance is measured.
Mouse VCP cDNA was added with a DNA sequence corresponding to histidine tag at the amino-terminal, subcloned into a baculovirus vector pVL1392 (BD Bioscience), and expressed in Sf-9 insect cells. The protein was purified with a nickel column (GE Healthcare). The concentration of the protein was adjusted to 0.25-0.5 μg/ml and the protein was stored in a solution containing 50 mM TrisCl pH 8.0, 5 mM EDTA, 10% glycerol, and 15 mM DTT.
The ATPase activity was determined as follows. 500 ng of the purified VCP was mixed with 100 μM [γ-32P]ATP (18.5 GBq/mmol) and the test substance in 20 μL of ATPase buffer (20 mM HEPES (pH7.4), 50 mM KCl, 5 mM MgCl2, 15 mM DTT), and incubated at 37° C. for 10 minutes.
The enzyme reaction was stopped with addition of 200 μL of an ice-cold solution containing 7% TCA and 1 mM K2HPO4. 50μ of a solution containing 3.75% ammonium molybdate and 0.02M tungstate silicic/3 NH2SO4 was added, followed by 300 μL of n-butylacetic acid, and then the liberated phosphate was extracted into the organic layer. The reaction tube was centrifuged for 5 minutes at 20,000 g to separate the aqueous layer and the organic layer, 200 μL of the organic layer was taken, and the beta ray radiated from the liberated phosphate was quantified with liquid scintillation counter.
By measuring the ATPase activity in the presence of the test substance at various concentrations, ATPase inhibitory activity of the test substance was measured. IC50 of the each test substance was calculated by applying the measured values to the equation below using GraphPad Prism (GraphPad Software).

T1 sequence (Q01853 whole entry): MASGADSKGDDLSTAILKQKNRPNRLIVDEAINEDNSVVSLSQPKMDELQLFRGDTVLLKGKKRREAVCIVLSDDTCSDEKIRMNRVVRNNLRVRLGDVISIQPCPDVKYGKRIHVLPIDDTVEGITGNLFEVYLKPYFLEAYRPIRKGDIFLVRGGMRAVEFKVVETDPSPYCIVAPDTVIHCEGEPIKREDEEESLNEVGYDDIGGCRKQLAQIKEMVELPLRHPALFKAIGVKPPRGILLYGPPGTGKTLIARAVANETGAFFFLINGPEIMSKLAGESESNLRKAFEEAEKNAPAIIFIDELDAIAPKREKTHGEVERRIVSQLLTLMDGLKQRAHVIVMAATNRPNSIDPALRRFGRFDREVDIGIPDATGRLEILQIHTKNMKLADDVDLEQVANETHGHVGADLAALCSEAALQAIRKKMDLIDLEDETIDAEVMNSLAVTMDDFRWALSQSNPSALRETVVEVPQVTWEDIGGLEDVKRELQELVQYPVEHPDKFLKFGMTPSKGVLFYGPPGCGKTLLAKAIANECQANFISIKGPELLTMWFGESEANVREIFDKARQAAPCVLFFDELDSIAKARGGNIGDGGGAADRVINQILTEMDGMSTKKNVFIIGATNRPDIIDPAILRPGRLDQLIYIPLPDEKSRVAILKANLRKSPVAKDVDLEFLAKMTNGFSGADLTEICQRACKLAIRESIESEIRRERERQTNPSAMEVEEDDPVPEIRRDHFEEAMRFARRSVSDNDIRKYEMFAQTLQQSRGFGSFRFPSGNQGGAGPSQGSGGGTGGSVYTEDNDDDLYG

For the molecule `CCCCOc1c(OCC)cc(C=O)cc1-c1ccc(/N=N/c2cc(S(=O)(=O)O)c3ccccc3c2N)cn1` [Example 148, 4-amino-3-[6-(2-butoxy-3-ethoxy-5-formylphenyl)pyridine-3-ylazo]naphthalene-1-sulfonic acid sodium salt], the IC50 stood at 1560 nM.

`Nc1c(/N=N/c2ccc(-c3cccc4c3sc3ccccc34)nc2)cc(S(=O)(=O)O)c2ccccc12` [Example 43, 4-amino-3-(6-dibenzothiophene-4-ylpyridine-3-ylazo)naphthalene-1-sulfonic acid potassium salt]: the IC50 stood at 1040 nM.

For `Nc1c(/N=N/c2ccc(-c3cccs3)nc2)cc(S(=O)(=O)O)c2ccccc12` [Example 17, 4-amino-3-(6-thiophene-2-ylpyridine-3-ylazo)naphthalene-1-sulfonic acid sodium salt], the IC50 was 143 nM.

For `CC(=O)c1ccccc1-c1ccc(/N=N/c2cc(S(=O)(=O)O)c3ccccc3c2N)cn1` [Example 14, 3-[6-(2-acetylphenyl)pyridine-3-ylazo]-4-aminonaphthalene-1-sulfonic acid sodium salt], the IC50 stood at 178 nM.

On to `Nc1c(/N=N/c2ccc(-c3cccc4c3S(=O)(=O)c3ccccc3-4)nc2)cc(S(=O)(=O)O)c2ccccc12` [Example 73, 4-amino-3-[6-(5,5-dioxo-5H-5λ^6-dibenzothiophene-4-yl)pyridine-3-ylazo]naphthalene-1-sulfonic acid sodium salt], for which the IC50 came to 499 nM.

In the case of `CCCCOc1c(C=O)cc(C)cc1-c1ccc(/N=N/c2cc(S(=O)(=O)O)c3ccccc3c2N)cn1` [Example 92, 4-amino-3-[6-(3-formyl-2-butoxy-5-methylphenyl)pyridine-3-ylazo]naphthalene-1-sulfonic acid sodium salt], the IC50 turned out to be 161 nM.

In the case of `Nc1c(/N=N/c2ccc(-c3cc(Cl)ccc3O)nc2)cc(S(=O)(=O)O)c2ccccc12` [Example 70, 4-amino-3-[6-(5-chloro-2-hydroxyphenyl)pyridine-3-ylazo]naphthalene-1-sulfonic acid sodium salt], the IC50 was 712 nM.

On to `Nc1c(/N=N/c2ccc(Cl)cc2Cl)cc(S(=O)(=O)O)c2ccccc12` [Example 111, 4-amino-3-(2,4-dichlorophenylazo)naphthalene-1-sulfonic acid sodium salt], for which the IC50 worked out at 244 nM.

As to `Nc1c(/N=N/c2ccc(-c3cccnc3)nc2)cc(S(=O)(=O)O)c2ccccc12` [Example 52, 4-amino-3-([2,3′]bipyridinyl-5-ylazo)naphthalene-1-sulfonic acid sodium salt], the IC50 came out at 1390 nM.

As to `Cc1cc(C)cc(-c2ccc(C)cc2-c2ccc(/N=N/c3cc(S(=O)(=O)O)c4ccccc4c3N)cn2)c1` [Example 74, 4-amino-3-[6-(4,3′,5′-trimethylbiphenyl-2-yl)pyridine-3-ylazo]naphthalene-1-sulfonic acid sodium salt], the IC50 was 4000 nM.

Take `CSc1ccc(/N=N/c2cc(S(=O)(=O)O)c3ccccc3c2N)cc1` [Example 134, 4-amino-3-(4-methylsulfanylphenylazo)naphthalene-1-sulfonic acid sodium salt]: the IC50 stood at 327 nM.

Take `CCOc1ccncc1/N=N/c1cc(S(=O)(=O)O)c2ccccc2c1N` [Example 13, 4-amino-3-(4-ethoxypyridine-3-ylazo)naphthalene-1-sulfonic acid sodium salt]: the IC50 was 26600 nM.

On to `Cc1ccc(/N=N/c2cc(S(=O)(=O)O)c3ccccc3c2N)c([N+](=O)[O-])c1` [Example 120, 4-amino-3-(4-methyl-2-nitrophenylazo)naphthalene-1-sulfonic acid sodium salt], for which the IC50 turned out to be 162 nM.

`Nc1c(/N=N/c2ccc(Cl)c(Cl)c2)cc(S(=O)(=O)O)c2ccccc12` [Example 112, 4-amino-3-(3,4-dichlorophenylazo)naphthalene-1-sulfonic acid sodium salt]: the IC50 is 526 nM.

For the molecule `Nc1c(/N=N/c2ccc(C(=O)Nc3ccc(CC(C(=O)O)C(=O)O)cc3)cc2)cc(S(=O)(=O)O)c2ccccc12` [Example 124, 2-{4-[4-(1-amino-4-sulfonaphthalene-2-ylazo)benzoylamino]benzyl}malonic acid trisodium salt], the IC50 was 4010 nM.

`N#Cc1ccc(-c2ccc(/N=N/c3cc(S(=O)(=O)O)c4ccccc4c3N)cn2)cc1` [Example 45, 4-amino-3-[6-(4-cyanophenyl)pyridine-3-ylazo]naphthalene-1-sulfonic acid sodium salt]: the concentration for half-maximal inhibition (IC50) was found to be 524 nM.

With `Cc1ccc(-c2cccc(Cl)c2)c(-c2ccc(/N=N/c3cc(S(=O)(=O)O)c4ccccc4c3N)cn2)c1` [Example 75, 4-amino-3-[6-(3′-chloro-4-methylbiphenyl-2-yl)pyridine-3-ylazo]naphthalene-1-sulfonic acid sodium salt], the IC50 was 924 nM.

Turning to `Nc1c(/N=N/c2ccccc2OCc2cccnc2)cc(S(=O)(=O)O)c2ccccc12` [Example 142, 4-amino-3-[2-(pyridine-3-ylmethoxy)phenylazo]naphthalene-1-sulfonic acid sodium salt], the IC50 is 243 nM.

Take `Nc1c(/N=N/c2ccc(-c3ccsc3)nc2)cc(S(=O)(=O)O)c2ccccc12` [Example 18, 4-amino-3-(6-thiophene-3-ylpyridine-3-ylazo)naphthalene-1-sulfonic acid sodium salt]: the IC50 came out at 163 nM.

On to `Nc1c(/N=N/c2ccc(-c3ccccc3O)nc2)cc(S(=O)(=O)O)c2ccccc12` [Example 63, 4-amino-3-[6-(2-hydroxyphenyl)pyridine-3-ylazo]naphthalene-1-sulfonic acid sodium salt], for which the IC50 came out at 807 nM.

For the molecule `Nc1c(/N=N/c2ccc(OCC(F)(F)F)nc2)cc(S(=O)(=O)O)c2ccccc12` [Example 5, 4-amino-3-[6-(2,2,2-trifluoroethoxy)pyridine-3-ylazo]naphthalene-1-sulfonic acid sodium salt], the IC50 was determined as 495 nM.

Consider `N#C/C(=C\c1ccc(/N=N/c2cc(S(=O)(=O)O)c3ccccc3c2N)cc1)c1ccccc1` [Example 143, 4-amino-3-[4-(2-cyano-2-phenylvinyl)phenylazo]naphthalene-1-sulfonic acid sodium salt], for which the IC50 worked out at 1220 nM.

Regarding `Nc1c(/N=N/c2ccc(C(=O)O)cc2)cc(S(=O)(=O)O)c2ccccc12` [Example 104, 4-(1-amino-4-sulfonaphthalene-2-ylazo)benzoic acid disodium salt], the IC50 was determined as 2070 nM.

Consider `Nc1c(/N=N/c2ccc3ncccc3c2)cc(S(=O)(=O)O)c2ccccc12` [Example 147, 4-amino-3-(quinoline-6-ylazo)naphthalene-1-sulfonic acid sodium salt], for which the IC50 was determined as 502 nM.

Take `Cc1cc(C)cc(-c2ccc(/N=N/c3cc(S(=O)(=O)O)c4ccccc4c3N)cn2)c1` [Example 35, 4-amino-3-[6-(3,5-dimethylphenyl)pyridine-3-ylazo]naphthalene-1-sulfonic acid sodium salt]: the IC50 is 632 nM.

Consider `Nc1c(/N=N/c2cnc(Cl)c(-c3ccccc3)c2)cc(S(=O)(=O)O)c2ccccc12` [Example 88, 4-amino-3-(6-chloro-5-phenylpyridine-3-ylazo)naphthalene-1-sulfonic acid sodium salt], for which the IC50 came out at 348 nM.

What is called IC50 is the concentration that inhibits the measured activity by half.
